SMILES strings stand for the structures. pEC50, pIC50: −log10 of the molar value. Several values for one entry are separate records, joined by “and”; a condition that tells them apart may be missing. Identical values can stand only once. Like-named read-outs stand apart in the source and are kept apart here.

Holding throughout (assay type): biochemical
Test [1] has as its target T1, human α2β2γ1 complex (WT) (Homo sapiens, UniProt P54619+P54646).
T1 construct: made in house; host or cells: Escherichia coli
Kind of test: Allosteric activation of WT human α2β2γ1 AMPK complex by AMP and ADP. The text has this:
(§1) To study allosteric activation with a more well-defined AMPK complex, and to study the effects of mutations in individual adenine nucleotide-binding sites on the γ subunit, we expressed a human α2β2γ1 complex in Escherichia coli and purified it utilizing the polyhistidine tag at the N-terminus of the α2 subunit. […] However, it had not been co-expressed with an N-myristoyl transferase so would not have been N-myristoylated on the β2 subunit. The complex was expressed not only with the WT γ1 sequence but also with mutations affecting hydrophobic residues previously shown to be involved in binding of the adenine moieties of nucleotides at CBS1 (L129D/V130D), CBS3 (V276G/L277G) and CBS4 (I312G). All four complexes co-purified as heterotrimeric 1:1:1 complexes as expected, and were phosphorylated and activated equally well either by CaMKK2 or the LKB1: STRADα:MO25α complex (Supplementary Figure S2). For the studies described below we phosphorylated Thr172 using a GST-tagged CaMKK2 and repurified AMPK using size exclusion chromatography and a glutathione-Sepharose column, which remove CaMKK2.
(§2) Figure 4. Allosteric activation of WT and mutant human α2β2γ1 AMPK complex by AMP and ADP at three different concentrations of ATP. The α2β2γ1 complex was phosphorylated on Thr172 prior to assay using CaMKK2. The γ1 subunit was either (A/E): WT; (B/F): a CBS1 mutant (L129D/V130D); (C/G): a CBS3 mutant (V276G/L277G); (D/H): a CBS4 mutant (I312G). Results are means of duplicate assays ± SD; error bars are not shown if they were smaller than the symbols used for mean values. Assays and curve fitting were as in Figure 1 at either 0.2 mM (left panels) or 5 mM (right panels) ATP. Best-fit values for all parameters used to generate the curves are listed in Supplementary Table S1.
(§3) Sources of antibodies were as described: pThr172 (AMPK-α: Cell Signaling Technologies, Danvers, MA, U.S.A., Cat# 2535), AMPK-α2 [22]. Rat liver AMPK was purified as described previously. Plasmid encoding human (His)6-tagged AMPK (α2β2γ1, bacterially expressed) generated as in [23], was a gift from AstraZeneca, Cambridge, U.K. The L129D/V130D (CBS1), V276G/L277G (CBS3) and I312G (CBS4) mutations in the α2β2γ1 complex were generated using the Quikchange II site-directed mutagenesis kit (Agilent Technologies) and confirmed by DNA sequencing. Human GST-tagged α2 kinase domain (1–310), LKB1:STRAD-α:MO25-α complexes, GST-tagged CaMKK2 [26], and PPM1A (PP2Cα) were produced as described. Bacterially expressed heterotrimers were activated by phosphorylation of Thr172 by GST-tagged CaMKK2 in the presence of ATP, and CaMKK2 was subsequently removed by passage through glutathione-Sepharose. Human GST-tagged α2 kinase domain was activated in a similar manner except that human (His)6-tagged LKB1:STRAD-α:MO25-α complex was used and removed after activation via passage through a His-Trap column. Recombinant human 5′-nucleotidase, CD73, Cat # 5795-EN-01, was from R&D systems (Minneapolis, MN, U.S.A.).
(§4) AMPK assays measured the transfer of radioactivity from [γ-^33P]ATP to a peptide substrate, which was separated from unreacted ATP by binding to P81 paper. This assay was described previously except that we used [γ-^33P] rather than [γ-^32P]ATP. In some assays (specified in Figure legends) the concentration of ATP was increased from 0.2 to 1 or 5 mM ATP, with MgCl2 concentrations maintained at a constant 4.8 mM excess above the concentration of ATP [19]. Where allosteric activation by AMP or ADP was being studied, we used the SAMS peptide as substrate. For all other assays the AMARA peptide was used.

The target of test [2] is T2, human α2β2γ1 complex, CBS3 mutant (V276G/L277G) (Homo sapiens, UniProt P54619+P54646, L277G/V276G).
T2 construct: made in house; host or cells: Escherichia coli
T2 sequence (P54619 whole entry V276G/L277G): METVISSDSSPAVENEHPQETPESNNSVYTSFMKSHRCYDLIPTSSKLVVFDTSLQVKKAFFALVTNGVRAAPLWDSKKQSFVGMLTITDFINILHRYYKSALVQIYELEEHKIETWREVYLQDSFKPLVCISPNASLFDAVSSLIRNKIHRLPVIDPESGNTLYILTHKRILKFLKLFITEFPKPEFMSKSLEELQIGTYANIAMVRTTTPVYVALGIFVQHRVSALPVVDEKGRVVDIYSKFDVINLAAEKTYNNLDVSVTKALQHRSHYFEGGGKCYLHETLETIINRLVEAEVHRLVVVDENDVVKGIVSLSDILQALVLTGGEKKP
T2 sequence (P54646 whole entry): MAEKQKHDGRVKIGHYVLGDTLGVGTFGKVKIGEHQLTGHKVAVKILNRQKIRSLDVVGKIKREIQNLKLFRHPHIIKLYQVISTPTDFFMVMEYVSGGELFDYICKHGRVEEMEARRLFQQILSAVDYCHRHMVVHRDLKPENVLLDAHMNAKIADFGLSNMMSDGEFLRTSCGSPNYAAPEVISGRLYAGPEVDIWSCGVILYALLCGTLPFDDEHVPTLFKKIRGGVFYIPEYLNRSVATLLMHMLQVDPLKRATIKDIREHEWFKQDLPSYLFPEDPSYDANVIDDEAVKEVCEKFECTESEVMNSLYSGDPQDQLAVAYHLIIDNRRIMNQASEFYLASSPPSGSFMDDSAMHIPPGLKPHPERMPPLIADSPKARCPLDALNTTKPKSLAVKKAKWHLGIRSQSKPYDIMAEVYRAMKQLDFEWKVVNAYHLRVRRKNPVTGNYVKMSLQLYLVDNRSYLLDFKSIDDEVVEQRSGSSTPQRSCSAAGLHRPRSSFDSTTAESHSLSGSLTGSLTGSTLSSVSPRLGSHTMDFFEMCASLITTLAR
T2 sequence (O43741 whole entry partner): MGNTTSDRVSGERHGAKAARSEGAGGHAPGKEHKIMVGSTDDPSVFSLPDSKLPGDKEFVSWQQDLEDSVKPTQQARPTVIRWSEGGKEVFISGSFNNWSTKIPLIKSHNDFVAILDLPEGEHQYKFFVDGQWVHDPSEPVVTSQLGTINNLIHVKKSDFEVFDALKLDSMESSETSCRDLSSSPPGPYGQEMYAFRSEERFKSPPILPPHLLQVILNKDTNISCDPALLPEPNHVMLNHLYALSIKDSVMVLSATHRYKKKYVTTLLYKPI
Kind of test: Allosteric activation of CBS3 mutant human α2β2γ1 AMPK complex.
Description: as §1, §2, §3, §4

For test [3], the target named is T3, human α2β2γ1 complex, CBS4 mutant (I312G) (Homo sapiens, UniProt P54619+P54646, I312G).
T3 construct: made in house; host or cells: Escherichia coli
T3 sequence (P54619 whole entry I312G): as the sequence (P54619 whole entry V276G/L277G) above, with G276V, G277L, I312G counted along it
T3 sequence (P54646 whole entry): as the sequence (P54646 whole entry) above
T3 sequence (O43741 whole entry partner): as the sequence (O43741 whole entry partner) above
Kind of test: Allosteric activation of CBS4 mutant human α2β2γ1 AMPK complex. Conditions: for Activation (maximal) / pIC50 / pEC50 / IC50/EC50: α2β2γ1 CBS4 mutant.
Description: as §1, §2, §3, §4

T1 sequence (P54619 whole entry): as the sequence (P54619 whole entry V276G/L277G) above, with G276V, G277L counted along it
T1 sequence (P54646 whole entry): as the sequence (P54646 whole entry) above
T1 sequence (O43741 whole entry partner): as the sequence (O43741 whole entry partner) above

With `Nc1ncnc2c1ncn2[C@@H]1O[C@H](COP(=O)(O)OP(=O)(O)O)[C@@H](O)[C@H]1O` [ADP], the “Activation (maximal)” value in test [1] (0.2 mM ATP) was “did not cause allosteric activation and none”; in test [2] (α2β2γ1 CBS3 mutant, 0.2 mM ATP), “did not cause allosteric activation and none”; in test [2] (α2β2γ1 CBS3 mutant, 5.0 mM ATP), “essentially abolished allosteric activation”; in test [3] (0.2 mM ATP) it was “did not cause allosteric activation and none”; in test [3] (5.0 mM ATP), “essentially abolished allosteric activation and none”. The pIC50 in test [1] (0.2 mM ATP) was 2.59; in test [1] (5.0 mM ATP), 2.92; in test [2] (α2β2γ1 CBS3 mutant, 0.2 mM ATP), 3.30; in test [2] (α2β2γ1 CBS3 mutant, 5.0 mM ATP), 2.12; in test [3] (0.2 mM ATP) it was 3.11; in test [3] (5.0 mM ATP), 1.51. Moreover, in test [1] (5 mM ATP), the “maximal activation actually reached” value is recorded as 1.6 fold. In addition, the “Activation (extrapolated maximal)” value in test [1] (5.0 mM ATP) is 9.9 fold and 9.9 (2.8 -??) fold. The molecule further had an IC50/EC50 in test [1] (5.0 mM ATP) of 1.5. The pEC50 in test [1] (5.0 mM ATP, read-out: EC50) was 3.11; in test [1] (5 mM ATP, read-out: EC50 for activation), 3.11 and 3.10.

Turning to `Nc1ncnc2c1ncn2[C@@H]1O[C@H](COP(=O)(O)O)[C@@H](O)[C@H]1O` [AMP], the “Activation (maximal)” value in test [1] (0.2 mM ATP) is 2.6 fold and 2.6 (2.5-2.6) fold; in test [2] (α2β2γ1 CBS3 mutant, 0.2 mM ATP), 1.2 (1.1-1.2) fold; in test [2] (α2β2γ1 CBS3 mutant, 5.0 mM ATP), 2.0- to 2.5 fold and 2.3 (2.1-2.7) fold; in test [3] (0.2 mM ATP), 2.1 fold and 2.1 (2.0-2.1) fold; in test [3] (5.0 mM ATP), 2.0- to 2.5 fold and 2.1 (1.9-2.4) fold. The pIC50 in test [1] (0.2 mM ATP) is 2.59; in test [1] (5.0 mM ATP) it was 1.28; in test [2] (α2β2γ1 CBS3 mutant, 0.2 mM ATP) it was 2.21; in test [2] (α2β2γ1 CBS3 mutant, 5.0 mM ATP), 1.40; in test [3] (0.2 mM ATP) it was 2.48; in test [3] (5.0 mM ATP), 1.55. Besides, the IC50/EC50 in test [1] (0.2 mM ATP) is on record as 2600; in test [1] (5.0 mM ATP), 2700; in test [2] (α2β2γ1 CBS3 mutant, 0.2 mM ATP), 2100; in test [2] (α2β2γ1 CBS3 mutant, 5.0 mM ATP) it was 110; in test [3] (0.2 mM ATP) it was 87; in test [3] (5.0 mM ATP), 100. For the same molecule, the pEC50 is 6.00 in test [1] (0.2 mM ATP, read-out: EC50); 4.72 in test [1] (5.0 mM ATP, read-out: EC50); 5.54 in test [2] (α2β2γ1 CBS3 mutant, 0.2 mM ATP); 3.43 in test [2] (α2β2γ1 CBS3 mutant, 5.0 mM ATP); 4.42 in test [3] (0.2 mM ATP); 3.55 in test [3] (5.0 mM ATP). The “Activation (extrapolated maximal)” value in test [1] (5.0 mM ATP) was 3.0 fold and 3.0 (2.9-3.1) fold. Moreover, the “increase of EC50 relative to WT” value in test [2] (α2β2γ1 CBS3 mutant vs WT, 5 mM ATP) is on record as 10- to 20 fold; in test [3] (α2β2γ1 CBS4 mutant vs WT, 5 mM ATP) it was 10- to 20 fold. For the same molecule, the “activation over basal remaining” value in test [2] (α2β2γ1 CBS3 mutant, 0.2 mM ATP) is reported as 20%. Further, the “increase of EC50 for activation relative to WT” value in test [3] (α2β2γ1 CBS4 mutant vs WT, 0.2 mM ATP) was 40 fold.

Source of the values: publication PMC11088877, “AMP-activated protein kinase can be allosterically activated by ADP but AMP remains the key activating ligand” (Biochemical Journal, 2024).
